Data as given in article PMC8162438, “Cancer cell-selective modulation of mitochondrial respiration and metabolism by potent organogold(III) dithiocarbamates” (Chemical Science, 2020).

Test system: MDA-MB-231
Test: Mitochondrial membrane potential (JC-1)
Format: cell-based
Conditions: MDA-MB-231, 10 μM, 6 h, versus DMSO
From the text: Activated DEG included NDUFS7, [complex I], COX7A1 gene [complex IV], and ATP5O, ATP5I genes [complex V] whereas the inhibited DEG were MT-ND4L [complex I], SDHD gene [complex II], and ATP5C, ATP5F [complex V]. […] These findings prompted functional biology experiments to further corroborate the effect of 2a or its mechanism of action in TNBC. We examined the effect of 2a on mitochondrial membrane potential, assayed by JC-1 dye.[85] […] We used carbonyl cyanide m-chlorophenyl hydrazine (CCCP), an uncoupler, as a positive control to validate the experiment. The MMP is a key driving force in ATP synthesis and overall a key factor in maintaining redox homeostasis throughout the cell.[86] […]
text (Figure 5C). Samples 37 °C, NaN 3, methyl-β-cyclodextrin, and chlorpromazine hydrochloride were calculated using calibration curve Fig. S134 and samples wortmannin, genistein, and +4 °C were calculated using calibration curve Fig. S135. […]
Prior to analysis samples were required to pass three tests before library construction: 1) nanodrop for RNA purity (OD 260/OD280), 2) agarose gel electrophoresis for RNA integrity and potential contamination, and 3) Agilent 2100 check RNA integrity. […] After library construction, qPCR was used to accurately quantify the library effective concentration (> 2 nM), in order to ensure the library quality. […]

C[N+](C)=C1[S][Au-2]2([S]1)[c]1ccccc1Cc1cccc[n+]12.F[P-](F)(F)(F)(F)F (stereo not shown) [2a]
Mitochondrial membrane potential (JC-1): strong depolarization of the MMP
